According to PubChem BioAssay (NCI):
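Each compound was tested at five concentrations against cells in 96-well plates for 48 hours. Abbreviation: GI50, concentration required for 50% inhibition of growth. TGI marks complete inhibition of growth.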

Tests used:
Experiment in all cases: NCI tumour cell line growth inhibition, 48 h
[1] = test system: HOP-62 NSCLC
[2] = test system: OVCAR-3 ovarian
[3] = test system: SNB-19 CNS
[4] = test system: SNB-75 CNS
[5] = test system: SR leukemia
[6] = test system: TK-10 renal
[7] = test system: HOP-92 NSCLC
[8] = test system: HS 578T breast
[9] = test system: NCI/ADR-RES ovarian
[10] = test system: PC-3 prostate

Row | Structure (SMILES) | TGI [1] | TGI [2] | TGI [3] | TGI [4] | TGI [5] | TGI [6] | TGI [7] | GI50 [1] | GI50 [7] | GI50 [8] | TGI [8] | GI50 [9] | TGI [9] | GI50 [2] | GI50 [3] | GI50 [4] | GI50 [6] | GI50 [10] | TGI [10] | GI50 [5]
1 | COc1cc(NCC(C#N)C#N)ccc1N=Nc1ccc(Cl)cc1 | 36.4 µM | 38.4 µM | 61.6 µM | 90.1 µM | 35.9 µM | 73 µM | – | – | – | – | – | – | – | – | – | – | – | – | – | –
2 | O=C1C=C(Nc2ccccc2C(=O)CC(=O)C(=O)Nc2cccc([N+](=O)[O-])c2)c2ccccc2C1=O | > 100 µM | 55.2 µM | > 100 µM | > 100 µM | – | > 100 µM | > 100 µM | – | – | – | – | – | – | – | – | – | – | – | – | –
3 | CCCCCCCCn1ccc2cc(NC(=O)Cn3cc(CN4CCCCCC4)nn3)ccc21 | 3.14 µM | 3.24 µM | 3.46 µM | 2.91 µM | – | 3.06 µM | 2.61 µM | 1.64 µM | 1.26 µM | 1.91 µM | 4.16 µM | 1.79 µM | 3.56 µM | 1.73 µM | 1.8 µM | 1.55 µM | 1.63 µM | – | – | –
4 | CC(=O)Oc1c(C)c(-c2ccccc2)c(C)c(-c2ccccc2)c1C(=S)c1ccccc1 | > 100 µM | > 100 µM | > 100 µM | > 100 µM | > 100 µM | > 100 µM | > 100 µM | – | – | – | – | – | – | – | – | – | – | – | – | –
5 | CC(=O)c1ccc(NC(=O)/C(CC(=O)c2sc(-c3cccnc3)nc2C)=N/NC(N)=O)cc1 | – | > 100 µM | > 100 µM | – | > 100 µM | – | – | – | – | – | – | – | – | – | – | – | – | – | – | –
6 | Cn1c(Cl)c(/C=C2/C(=O)Nc3ccccc32)c2ccccc21 | 6.68 µM | 1.26 µM | 29.9 µM | 23 µM | – | 20.4 µM | > 100 µM | 0.293 µM | 13.4 µM | 0.248 µM | 2.03 µM | 0.371 µM | 3.57 µM | 0.204 µM | 0.935 µM | 3.28 µM | 1.5 µM | 0.859 µM | > 33.7 µM | –
7 | CC1(O)C(C)(O)C2(C)O[Te]3(OC12C)OC1(C)C(C)(O)C(C)(O)C1(C)O3 (configuration not stated) | > 100 µM | 41.5 µM | > 100 µM | > 100 µM | 51.3 µM | > 100 µM | 49.2 µM | – | – | – | – | – | – | – | – | – | – | – | – | –
8 | COc1ccc(C=O)cc1O[Si](C)(C)C(C)(C)C | > 100 µM | > 100 µM | > 100 µM | > 100 µM | – | > 100 µM | > 100 µM | – | – | – | – | – | – | – | – | – | – | – | – | –
9 | O=C(Nc1ccc(Cl)cc1)C1C(=O)C(=O)N(c2ccc(Cl)cc2)C1=O (configuration not stated) | – | > 100 µM | > 100 µM | > 100 µM | > 100 µM | > 100 µM | 69.3 µM | – | – | – | – | – | – | – | – | – | – | – | – | –
10 | C=C(C)[C@@H]1CC[C@]2(COCCCN)CC[C@]3(C)[C@H](CC[C@@H]4[C@@](C)(CCCNCCCN)[C@H](C(=C)C)CC[C@]43C)[C@@H]12 | 3.25 µM | 3.36 µM | 3.56 µM | – | 3.59 µM | 3.15 µM | 2.84 µM | 1.66 µM | 1.36 µM | 2.16 µM | 5.54 µM | 1.88 µM | 3.63 µM | 1.81 µM | 1.84 µM | – | 1.68 µM | 1.7 µM | 3.25 µM | 1.32 µM
11 | CCCCCCCCCCCC(=O)OCCOCCOCCOCCOCCOC(=O)CCCCCCCCCCC | > 100 µM | > 100 µM | > 100 µM | > 100 µM | > 100 µM | > 100 µM | > 100 µM | – | – | – | – | – | – | – | – | – | – | – | – | –
12 | O=C1N/C(=C\[N+](=O)[O-])c2ccccc21 | > 100 µM | > 100 µM | > 100 µM | 93.3 µM | > 100 µM | > 100 µM | > 100 µM | – | – | – | – | – | – | – | – | – | – | – | – | –
13 | COc1cc(Nc2ncccc2C(=O)Nc2nc3ccc(F)cc3s2)cc(OC)c1OC | > 100 µM | 33 µM | > 100 µM | > 100 µM | > 100 µM | – | 5.91 µM | 5.78 µM | 1.48 µM | – | – | 2.92 µM | > 100 µM | 2.77 µM | 3.49 µM | 4.48 µM | – | 2.73 µM | > 100 µM | 2.97 µM
14 | CCCC1(CC(=O)O)OCCc2c1[nH]c1ccccc21 (configuration not stated) | > 100 µM | > 100 µM | > 100 µM | > 100 µM | – | > 100 µM | > 100 µM | – | – | – | – | – | – | – | – | – | – | – | – | –
15 | NC1=NN(c2ccccc2)C(=O)C1C(=O)CCC(=O)Nc1cccc(Cl)c1 (configuration not stated) | > 100 µM | > 100 µM | > 100 µM | > 100 µM | – | > 100 µM | > 100 µM | – | – | – | – | – | – | – | – | – | – | – | – | –
16 | Cc1ccc(S(=O)(=O)N=Nc2c(O)[nH]c3cc(O)c(C(=O)O)cc23)cc1 | > 100 µM | > 100 µM | > 100 µM | > 100 µM | > 100 µM | > 100 µM | – | – | – | – | > 100 µM | – | > 100 µM | – | – | – | – | – | > 100 µM | –
17 | COc1ccc2c(c1)C(=O)CCc1cc(OC)c(OC)c(OC)c1-2 | – | – | > 100 µM | – | – | > 100 µM | – | – | – | – | 0.0576 µM | < 0.01 µM | – | – | < 0.01 µM | – | – | < 0.01 µM | > 100 µM | –
18 | CC(C)CNc1nc(-c2ccccc2Cl)nc2ccccc12 | 29.2 µM | 31.2 µM | 58.5 µM | – | 44.9 µM | 29.6 µM | 35.2 µM | 15.8 µM | 15.6 µM | 18 µM | 37.3 µM | 17.8 µM | 42.6 µM | 17 µM | 24.8 µM | – | 15.8 µM | 18.5 µM | 46.4 µM | 19.7 µM
19 | C[C@]12CC=CC(=O)[C@@]1(C)CCC(=O)C2 | > 100 µM | > 100 µM | > 100 µM | > 100 µM | > 100 µM | > 100 µM | > 100 µM | – | – | – | – | – | – | – | – | – | – | – | – | –
20 | C#CC1(O)C(COP(=O)(O)OCC(COP(=O)(O)OCC2OC(n3cc(F)c(=O)[nH]c3=O)CC2O)OCCCCCCCCCCCCCCCCCC)OC(n2ccc(N)nc2=O)C1O (configuration not stated) | 10.6 µM | – | > 57.2 µM | > 55.3 µM | – | > 29 µM | – | 0.0631 µM | 0.764 µM | 2.16 µM | > 52.8 µM | 0.147 µM | > 40.4 µM | 0.448 µM | 0.313 µM | 0.713 µM | 0.241 µM | 0.0397 µM | 6.72 µM | –
21 | N#C/C(=C/c1cccc(Oc2ccccc2)c1)c1ccccc1 | – | – | – | > 100 µM | > 100 µM | > 100 µM | > 100 µM | – | – | – | – | – | – | – | – | – | – | – | – | –
22 | Cc1ccc(S(=O)(=O)OC2CC=CC2)cc1 | > 100 µM | > 100 µM | > 100 µM | > 100 µM | – | > 100 µM | > 100 µM | – | – | – | – | – | – | – | – | – | – | – | – | –
